Consider one substance from patent publication US20240402182A1, “PEPTIDE TARGETING FUSOBACTERIA, COMPOSITION FOR DIAGNOSING CANCER COMPRISING SAME, AND DRUG DELIVERY COMPOSITION” (INDUSTRY-ACADEMIC COOPERATION FOUNDATION, YONSEI UNIVERSITY, priority 2021, published 2024).

The assay concerns mixture of 9 types of Fusobacteria. Put plainly: ELISA binding affinity of selected M13 bacteriophage clones to Fusobacteria (FIG. 4D). Further details: species or system Fusobacterium nucleatum. Conditions: M13 bacteriophage displaying the peptide, plate coated with Fusobacteria, M13-HRP antibody, TMB, absorbance at OD450. How it is done:
A mixture of 9 types of Fusobacteria or each of the 9 types of Fusobacteria was coated on a plate, and a blocking reaction was performed using a 5% BSA solution to prevent non-specific binding. Each selected M13 bacteriophage was reacted on the plate coated with Fusobacteria. The plate was washed three times with phosphate buffer solution containing 0.1% Tween 20, and then reacted with an M13-HRP antibody. The reaction plate was washed three times with phosphate buffer solution containing 0.1% Tween 20 and reacted using a TMB color solution. The reaction was stopped with 1 M sulfuric acid (H2SO4), and the absorbance was measured at OD450 to compare the binding affinity.
(ELISA stands for enzyme-linked immunosorbent assay.)

On to PPWLADI [SEQ ID NO: 81], for which the “binding affinity to Fusobacteria (ELISA)” value was “highest binding affinity”.
